1 substance from US20230285516A1 (priority 2020, published 2023) can be followed below.

Data set [1] can be described thus: Adverse events in the mouse study. Format: in vivo, mice. The following applies: after injection, throughout the study. The protocol:
There was no evidence of adverse events after injection of placebo or the different treatments throughout the study. The only adverse event observed was pain lasting less than 15 minutes at the injection site.

Another data set deals with TNF-α. Description: TNF-α tissue expression in cartilage and synovium co-cultures (histochemistry). Format: cell-based, human. Particulars: RA or OA co-cultures, 1% type I polymerized collagen, 7 days. The protocol: Cartilage and synovium co-cultures were performed from 9 patients with RA and 8 patients with OA who underwent hip or knee replacement (Table 1). Joint tissue was cultured with (a) RPMI (control), (b) 1% type I polymerized collagen, for 7 days. The supernatants and tissues of days 1 and 7 were […] collected. In the culture supernatants the concentration of IL-1β, IL-8, IL-10, IL-12, TNF-α and IFN-γ was quantified by ELISA and the results were normalized with total protein concentration. The expression of IL-1β and TNF-α was evaluated using histochemistry.
FIG. 2. Effect of type I polymerized collagen on TNF-α expression. (A) Cells immunoreactive to TNF-α in the synovial tissue of the co-cultures. (B) Immunoreactive TNF-α+ cells in cartilage from co-cultures. Rheumatoid arthritis (RA): left panel. Osteoarthritis (OA): right panel. Basal: tissue in basal conditions. […] Each culture was performed in triplicate for each condition, of which at least two sections of each of the tissues were analyzed. The results are expressed as the mean±standard error (SEM) of the percentage of immunoreactive cells in 9 co-cultures of patients with RA and 8 with OA. *p≤0.002.

Another data set has as its system IL-23. Put plainly: IL-23 gene expression in co-cultured tissues (RT-PCR). The class given is cell-based, human. Particulars: co-cultures from patients with RA, vs control. From the text: FIG. 7. Effect of type I polymerized collagen on the gene expression of pro- and anti-inflammatory cytokines and factors in the tissues of cartilage and synovial tissue co-cultures of patients with rheumatoid arthritis (RA). (A) Quantification of TNF-α, IL-6 and IL-10 gene expression and (B) Quantification of IL-23 and Foxp3 gene expression by RT-PCR in synovial membrane tissues and cartilage co-cultured for 7 days. The bars show the mean±SD of the transcript levels of the samples normalized through the expression of the housekeeping gene GADPH determined by 2ΔΔCt. The data represent the mean±SD of 9 cartilage and synovial co-cultures from RA patients. Each culture was performed in triplicate for each condition. Basal: tissue in basal conditions.

As for “collagen-polyvinylpyrrolidone [type I polymerized collagen]”, the adverse events result in data set [1] is given as “no adverse effects”. The “tissue expression of TNF-α vs. controls in synovial tissue” value in the data set with TNF-α was “decreased”. Besides, the “transcription of IL-23 gene” value in the data set on IL-23 is listed as “negatively regulated”.
